From ChEMBL document CHEMBL1139777, “Discovery of a highly potent series of oxazole-based phosphodiesterase 4 inhibitors” (Bioorg Med Chem Lett, 2007)
pIC50: −log10 of the molar value.

How the values were obtained:
[1] = biological target: T1, 3',5'-cyclic-AMP phosphodiesterase 4B (Homo sapiens, UniProt Q07343); assay: Inhibition of PDE4B
[2] = biological target: Dual 3',5'-cyclic-AMP and -GMP phosphodiesterase 11A (Homo sapiens, UniProt Q9HCR9); assay: Inhibition of PDE11
[3] = biological target: cAMP and cAMP-inhibited cGMP 3',5'-cyclic phosphodiesterase 10A (Homo sapiens, UniProt Q9Y233); assay: Inhibition of PDE10
[4] = Cmax in rat at 10 mg/kg, po; type: ADME, organism-based; parameters: dose 10 mg/kg, route oral; settings: in vivo
Rattus norvegicus [5] = assay: Antiinflammatory activity in rat lipopolysaccharide-induced pulmonary inflammation model assessed as inhibition of polymorphonuclear cells at 3 mg/kg, po; type: functional
[6] = biological target: T1, 3',5'-cyclic-AMP phosphodiesterase 4B; assay: Inhibition of PDE4B at 1 uM
[7] = Cmax in cynomolgus monkey at 30 mg/kg, po; type: ADME, organism-based, Macaca fascicularis; parameters: dose 30 mg/kg, route oral; settings: in vivo
Cynomolgus monkey = assay: AUC in cynomolgus monkey at 30 mg/kg, po; type: ADME, organism-based, Macaca fascicularis, Plasma; parameters: dose 30 mg/kg, route oral; settings: in vivo
Rattus norvegicus [8] = assay: Antiinflammatory activity in rat lipopolysaccharide-induced pulmonary inflammation model assessed as inhibition of polymorphonuclear cells at 1 mg/kg, po; type: functional
Homo sapiens [9] = species on record: Homo sapiens; assay: Selectivity for PDE4B over PDE11
Homo sapiens [10] = species on record: Homo sapiens; assay: Selectivity for PDE4B over PDE10
Rattus norvegicus [11] = assay: Antiinflammatory activity in po dosed rat lipopolysaccharide-induced pulmonary inflammation model assessed as inhibition of polymorphonuclear cells; type: functional

T1 sequence (Q07343 whole entry): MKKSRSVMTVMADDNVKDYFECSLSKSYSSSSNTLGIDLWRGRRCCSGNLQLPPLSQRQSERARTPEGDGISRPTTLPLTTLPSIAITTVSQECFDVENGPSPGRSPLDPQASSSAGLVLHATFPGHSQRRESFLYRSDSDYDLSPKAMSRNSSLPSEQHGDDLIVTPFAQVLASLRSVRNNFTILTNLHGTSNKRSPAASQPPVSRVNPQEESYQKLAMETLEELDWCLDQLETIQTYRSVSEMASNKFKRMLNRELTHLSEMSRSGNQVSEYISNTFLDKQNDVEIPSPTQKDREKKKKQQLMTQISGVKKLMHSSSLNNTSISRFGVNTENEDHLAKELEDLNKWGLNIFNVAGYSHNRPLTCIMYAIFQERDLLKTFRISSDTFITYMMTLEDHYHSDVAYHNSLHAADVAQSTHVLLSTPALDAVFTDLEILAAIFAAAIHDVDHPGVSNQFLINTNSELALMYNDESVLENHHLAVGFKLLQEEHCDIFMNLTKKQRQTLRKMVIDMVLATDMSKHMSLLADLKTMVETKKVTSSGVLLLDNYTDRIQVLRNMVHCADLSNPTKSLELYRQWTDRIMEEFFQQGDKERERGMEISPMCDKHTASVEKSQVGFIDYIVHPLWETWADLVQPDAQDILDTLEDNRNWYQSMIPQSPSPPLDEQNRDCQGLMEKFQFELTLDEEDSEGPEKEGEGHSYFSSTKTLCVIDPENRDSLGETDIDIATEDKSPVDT
Sequence of cAMP and cAMP-inhibited cGMP 3',5'-cyclic phosphodiesterase 10A (Q9Y233 whole entry): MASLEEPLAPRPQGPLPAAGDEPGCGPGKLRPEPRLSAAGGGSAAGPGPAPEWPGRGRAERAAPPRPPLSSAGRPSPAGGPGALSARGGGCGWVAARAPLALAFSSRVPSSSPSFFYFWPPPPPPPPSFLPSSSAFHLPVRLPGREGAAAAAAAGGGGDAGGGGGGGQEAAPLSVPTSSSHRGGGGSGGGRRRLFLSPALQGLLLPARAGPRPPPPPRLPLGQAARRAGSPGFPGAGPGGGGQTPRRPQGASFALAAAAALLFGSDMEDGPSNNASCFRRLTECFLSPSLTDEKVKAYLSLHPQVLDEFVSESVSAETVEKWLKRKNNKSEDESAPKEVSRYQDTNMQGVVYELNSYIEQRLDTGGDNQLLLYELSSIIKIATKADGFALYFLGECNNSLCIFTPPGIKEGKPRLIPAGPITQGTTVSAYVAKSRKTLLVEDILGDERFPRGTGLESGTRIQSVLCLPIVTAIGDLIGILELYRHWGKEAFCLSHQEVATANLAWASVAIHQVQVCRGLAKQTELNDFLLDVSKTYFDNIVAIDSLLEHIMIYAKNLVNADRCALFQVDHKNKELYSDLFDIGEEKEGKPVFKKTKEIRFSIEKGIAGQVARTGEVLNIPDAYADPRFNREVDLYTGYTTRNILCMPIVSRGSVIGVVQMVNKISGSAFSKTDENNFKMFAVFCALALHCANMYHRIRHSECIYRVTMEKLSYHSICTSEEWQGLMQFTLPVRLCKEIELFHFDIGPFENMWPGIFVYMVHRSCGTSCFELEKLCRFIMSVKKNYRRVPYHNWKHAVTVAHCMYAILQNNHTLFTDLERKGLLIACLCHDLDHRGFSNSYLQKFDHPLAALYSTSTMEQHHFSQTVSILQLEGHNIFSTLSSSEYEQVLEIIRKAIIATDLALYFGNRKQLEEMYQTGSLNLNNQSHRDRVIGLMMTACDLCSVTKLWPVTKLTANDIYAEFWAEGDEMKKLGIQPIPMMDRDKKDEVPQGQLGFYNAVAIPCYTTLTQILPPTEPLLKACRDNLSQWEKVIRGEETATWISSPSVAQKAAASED
Sequence of Dual 3',5'-cyclic-AMP and -GMP phosphodiesterase 11A (Q9HCR9 whole entry): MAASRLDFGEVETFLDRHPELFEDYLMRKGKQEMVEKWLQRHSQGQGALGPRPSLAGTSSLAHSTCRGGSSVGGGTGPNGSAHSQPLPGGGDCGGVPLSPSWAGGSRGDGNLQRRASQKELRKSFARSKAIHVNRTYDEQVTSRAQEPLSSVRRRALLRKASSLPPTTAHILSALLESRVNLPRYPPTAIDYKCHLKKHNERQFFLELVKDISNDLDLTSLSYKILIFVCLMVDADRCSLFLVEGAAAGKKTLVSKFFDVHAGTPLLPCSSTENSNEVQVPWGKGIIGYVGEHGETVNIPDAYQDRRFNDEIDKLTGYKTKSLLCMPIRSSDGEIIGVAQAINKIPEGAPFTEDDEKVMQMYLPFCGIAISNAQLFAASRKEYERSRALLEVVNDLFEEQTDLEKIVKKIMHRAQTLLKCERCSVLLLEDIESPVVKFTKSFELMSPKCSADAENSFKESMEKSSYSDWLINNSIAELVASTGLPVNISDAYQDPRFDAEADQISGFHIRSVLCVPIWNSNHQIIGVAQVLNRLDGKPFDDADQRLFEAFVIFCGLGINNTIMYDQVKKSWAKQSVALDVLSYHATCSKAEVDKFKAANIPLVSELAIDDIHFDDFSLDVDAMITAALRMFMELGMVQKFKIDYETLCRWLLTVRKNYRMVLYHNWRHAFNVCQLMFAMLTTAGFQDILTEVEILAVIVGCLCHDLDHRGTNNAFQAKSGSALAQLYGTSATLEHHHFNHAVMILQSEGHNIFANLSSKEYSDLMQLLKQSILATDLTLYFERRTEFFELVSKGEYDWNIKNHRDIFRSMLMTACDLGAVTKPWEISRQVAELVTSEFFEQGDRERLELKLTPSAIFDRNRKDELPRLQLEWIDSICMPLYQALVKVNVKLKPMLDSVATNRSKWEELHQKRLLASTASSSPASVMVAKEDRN

pIC50 [1]	pIC50 [2]	pIC50 [3]	SMILES	also measured
7.51	–	–	COc1ccc(-c2nc(C(=O)N3CCC3)c(CN)o2)c2ccc(C(F)(F)F)nc12	–
6.24	–	–	CNCc1oc(-c2ccc(OC)c3nc(C(F)(F)F)ccc23)nc1C(N)=O	–
7.21	–	–	CCN(CC)C(=O)c1nc(-c2ccc(OC)c3nc(C(F)(F)F)ccc23)oc1CN	–
6.51	–	–	COc1ccc(-c2nc(C=O)c(C)o2)c2ccc(C(F)(F)F)nc12	–
6.46	–	–	COc1ccc(-c2nc(C)co2)c2ccc(C(F)(F)F)nc12	–
7.10	–	–	COc1ccc(-c2nc(CN)c(C)o2)c2ccc(C(F)(F)F)nc12	–
7.62	5.12	5.55	COc1ccc(-c2nc(C(N)=O)c(CN)o2)c2ccc(C(F)(F)F)nc12	–
7.31	–	–	COc1ccc(-c2nc(C(=O)N3CCCCC3)c(CN)o2)c2ccc(C(F)(F)F)nc12	–
8.37	6.22	5.96	COc1ccc(-c2nc(C(=O)N3CCN(C(=O)OC(C)(C)C)CC3)c(CN)o2)c2ccc(C(F)(F)F)nc12	Cmax [4]: 1400 nM; inhibition in vivo at 3 mg/kg (Rattus norvegicus [5]): 56%
7.06	–	–	COc1ccc(-c2nc(C(N)=O)c(C)o2)c2ccc(C(F)(F)F)nc12	–
–	–	–	COc1ccc(-c2nc(C(N)=O)c(CN(C)C)o2)c2ccc(C(F)(F)F)nc12	inhibition [6]: 40%
6.33	–	–	COc1ccc(-c2nc(CO)c(C)o2)c2ccc(C(F)(F)F)nc12	–
7.72	5.70	6.37	COc1ccc(-c2nc(C(=O)N3CCN(c4ncccn4)CC3)c(CN)o2)c2ccc(C(F)(F)F)nc12	Cmax [4]: 9500 nM; Cmax [7]: 13000 nM; inhibition in vivo at 3 mg/kg (Rattus norvegicus [5]): 64%; AUC (Cynomolgus monkey): 130 µM·h
8.80	5.82	6.92	CO/N=C(\c1ccccn1)C1CCN(C(=O)c2nc(-c3ccc(OC)c4nc(C(F)(F)F)ccc34)oc2CN)CC1	inhibition in vivo at 1 mg/kg (Rattus norvegicus [8]): 45%; Cmax [4]: 610 nM
9.00	5.68	5.72	COc1ccc(-c2nc(C(=O)N3CCN(C(=O)c4ccccn4)CC3)c(CN)o2)c2ccc(C(F)(F)F)nc12	Cmax [4]: 730 nM; Selectivity ratio (Homo sapiens [9]): 1000; Selectivity ratio (Homo sapiens [10]): 1000; ED50 (Rattus norvegicus [11]): 0.6 mg/kg
7.77	–	–	COc1ccc(-c2nc(C(=O)N3CCCC3)c(CN)o2)c2ccc(C(F)(F)F)nc12	–
7.70	5.14	< 5.00	COc1ccc(C(=O)Nc2c(Cl)cncc2Cl)c2ccc(C(F)(F)F)nc12	–

pIC50 [1]	pIC50 [2]	pIC50 [3]	SMILES	also measured
7.22	< 5.00	< 5.00	COc1ccc(C(=O)Nc2c(Cl)c[n+]([O-])cc2Cl)c2ccc(C(F)(F)F)nc12 [SCH-351591]	–
8.92	5.48	5.77	COc1ccc(-c2nc(C(=O)N3CCN(S(=O)(=O)N(C)C)CC3)c(CN)o2)c2ccc(C(F)(F)F)nc12	Selectivity ratio (Homo sapiens [9]): 1000; Selectivity ratio (Homo sapiens [10]): 1000
9.00	6.89	7.70	COc1ccc(-c2nc(C(=O)N3CCC4(CC3)C(=O)NCN4c3ccccc3)c(CN)o2)c2ccc(C(F)(F)F)nc12	Selectivity ratio (Homo sapiens [9]): 130; Selectivity ratio (Homo sapiens [10]): 20
6.17	–	–	CCc1coc(-c2ccc(OC)c3nc(C(F)(F)F)ccc23)n1	–
8.85	6.09	6.89	COc1ccc(-c2nc(C(=O)N3CC[C@@H](NC(=O)OC(C)(C)C)C3)c(CN)o2)c2ccc(C(F)(F)F)nc12	Cmax [4]: 610 nM; ED50 (Rattus norvegicus [11]): 0.2 mg/kg
–	–	–	COc1ccc(-c2nc(C(N)=O)c(CN3CCCCC3)o2)c2ccc(C(F)(F)F)nc12	inhibition [6]: 27%
6.33	–	–	COc1ccc(-c2nc(CCl)c(C)o2)c2ccc(C(F)(F)F)nc12	–
8.70	6.30	6.22	COc1ccc(-c2nc(C(=O)N3CCC(O)(c4ccccc4)CC3)c(CN)o2)c2ccc(C(F)(F)F)nc12	Cmax [4]: 170 nM; ED50 (Rattus norvegicus [11]): 2 mg/kg
–	–	–	CCN(CC)Cc1oc(-c2ccc(OC)c3nc(C(F)(F)F)ccc23)nc1C(N)=O	inhibition [6]: 21%
9.30	6.00	5.82	COc1ccc(-c2nc(C(=O)N3CCN(C(=O)c4cc(C)[nH]n4)CC3)c(CN)o2)c2ccc(C(F)(F)F)nc12	Selectivity ratio (Homo sapiens [9]): 1000; Selectivity ratio (Homo sapiens [10]): 1000
7.28	–	–	COc1ccc(-c2nc(C(=O)O)c(CN)o2)c2ccc(C(F)(F)F)nc12	–
–	–	–	COc1ccc(-c2nc(C(N)=O)c(CN3CCCC3)o2)c2ccc(C(F)(F)F)nc12	inhibition [6]: 31%
–	–	–	COc1ccc(-c2nc(C(N)=O)c(CNC3CCCC3)o2)c2ccc(C(F)(F)F)nc12	inhibition [6]: 39%
7.12	–	–	COc1ccc(-c2nc(CN)c(C(N)=O)o2)c2ccc(C(F)(F)F)nc12	–
6.96	–	–	CNC(=O)c1nc(-c2ccc(OC)c3nc(C(F)(F)F)ccc23)oc1CN	–
6.41	–	–	COc1ccc(-c2nc(C(=O)O)c(C)o2)c2ccc(C(F)(F)F)nc12	–
8.66	6.01	6.12	COc1cc(OC)nc(N2CCN(C(=O)c3nc(-c4ccc(OC)c5nc(C(F)(F)F)ccc45)oc3CN)CC2)n1	Cmax [4]: 230 nM; ED50 (Rattus norvegicus [11]): 2 mg/kg
